The values that follow come from paper PMC7932537, “Quantitative profiling of protease specificity” (PLoS Computational Biology, 2021).

The target in experiment [1] is MMP-9 (Homo sapiens, UniProt P14780). The experiment is described as follows: K(obs) of individual phage substrates (set of 1369). The experiment is classed as biochemical. As to conditions: MMP9; individual phage substrate of the set of 1369 peptides; dash in sequence marks cleavage position.
In the next experiment the target is T1, MMP-2 (Homo sapiens, UniProt P08253).
T1 sequence (P08253 110-660): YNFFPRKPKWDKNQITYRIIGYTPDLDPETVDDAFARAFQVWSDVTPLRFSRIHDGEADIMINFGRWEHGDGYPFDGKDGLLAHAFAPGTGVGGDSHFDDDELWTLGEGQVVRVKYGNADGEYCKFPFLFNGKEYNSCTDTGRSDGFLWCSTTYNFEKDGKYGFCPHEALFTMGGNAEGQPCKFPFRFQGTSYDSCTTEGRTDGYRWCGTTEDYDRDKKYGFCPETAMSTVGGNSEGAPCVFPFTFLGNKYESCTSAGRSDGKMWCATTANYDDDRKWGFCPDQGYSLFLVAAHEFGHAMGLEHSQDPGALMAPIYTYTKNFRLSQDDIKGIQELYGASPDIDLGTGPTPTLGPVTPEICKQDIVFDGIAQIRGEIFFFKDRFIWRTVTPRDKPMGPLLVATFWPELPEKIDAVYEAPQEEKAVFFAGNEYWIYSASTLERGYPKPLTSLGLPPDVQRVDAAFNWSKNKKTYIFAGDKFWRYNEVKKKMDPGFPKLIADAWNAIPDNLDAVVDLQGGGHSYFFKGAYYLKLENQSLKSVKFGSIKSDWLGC
The description is as above. In kind it is biochemical. Conditions: MMP2; individual phage substrate from the set of 1369 peptides; hyphen in the sequence marks the cleavage position.

Experiment [2] relates to MMP-9. The experiment is described as follows: Substrate phage display with NGS: relative probability (RP) of P3-P1' tetramer clusters.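 Also: ratio of tetramer probability after protease selection to that in naive phage library.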 In kind it is biochemical, human. Conditions: MMP9; RP of the substrate's P3-P1' tetramer, substrate phage display with NGS.

Chain of MMP-9 (Homo sapiens, UniProt P14780) (P14780 94-707): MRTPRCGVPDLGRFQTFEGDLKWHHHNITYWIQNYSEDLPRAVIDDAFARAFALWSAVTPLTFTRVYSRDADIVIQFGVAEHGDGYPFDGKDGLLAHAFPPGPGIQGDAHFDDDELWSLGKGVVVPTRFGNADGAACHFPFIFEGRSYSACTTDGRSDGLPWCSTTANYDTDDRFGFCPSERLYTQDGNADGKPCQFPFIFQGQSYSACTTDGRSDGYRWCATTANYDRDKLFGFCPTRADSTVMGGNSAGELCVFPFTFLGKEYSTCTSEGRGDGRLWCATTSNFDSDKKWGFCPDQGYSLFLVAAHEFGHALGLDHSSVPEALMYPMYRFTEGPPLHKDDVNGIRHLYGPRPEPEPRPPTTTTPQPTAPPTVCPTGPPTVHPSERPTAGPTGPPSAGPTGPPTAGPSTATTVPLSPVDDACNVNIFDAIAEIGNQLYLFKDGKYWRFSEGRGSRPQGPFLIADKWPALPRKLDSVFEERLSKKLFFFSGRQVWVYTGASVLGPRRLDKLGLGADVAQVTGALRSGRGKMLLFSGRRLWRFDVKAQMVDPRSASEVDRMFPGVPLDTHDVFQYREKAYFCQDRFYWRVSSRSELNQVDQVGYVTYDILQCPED

Consider GFTRW-LTASG, for which the entries for the “Kobs” value at MMP-9 [1] and at MMP-2 were 6396.07 M⁻¹ s⁻¹ and 4763.33 M⁻¹ s⁻¹, respectively. The “relative probability (RP)” value in the experiment on MMP-9 [2] turned out to be 25.6075.
On the same counts, the results for IAPEF-LTASG are 12792.1 M⁻¹ s⁻¹, 12792.1 M⁻¹ s⁻¹ and 20.835.
Taken in the same sequence, the figures for SGPAS-VRNTA were 2837.92 M⁻¹ s⁻¹, 12792.1 M⁻¹ s⁻¹ and 25.8589.
On the same counts, the results for GLVWN-LWTAS are 8321.48 M⁻¹ s⁻¹, 1660.66 M⁻¹ s⁻¹ and 38.922.
In the case of IAPAK-LTASG, the “Kobs” value on MMP-9 [1] and on MMP-2 was 12792.1 M⁻¹ s⁻¹ in each case. Moreover, in the experiment on MMP-9 [2], the “relative probability (RP)” value is 39.5582.
As for EGPMR-LTASG, the “Kobs” value on MMP-9 [1] and on MMP-2 was 12792.1 M⁻¹ s⁻¹ throughout. For the same substance, the “relative probability (RP)” value in the experiment on MMP-9 [2] is 42.6597.
For the substance HVVAK-MTASG, the “Kobs” value was 1981.53 M⁻¹ s⁻¹ on MMP-9 [1] and 6396.07 M⁻¹ s⁻¹ at MMP-2. In the experiment with MMP-9 [2], the “relative probability (RP)” value was 0.5992.
Turning to EAIGR-LTASG, the “Kobs” value at MMP-9 [1] came to 517.582 M⁻¹ s⁻¹; at MMP-2, 12792.1 M⁻¹ s⁻¹. For the same substance, in the experiment on MMP-9 [2], the “relative probability (RP)” value came out at 4.541.
Taken in the same sequence, the figures for YKPVY-YTASG were 12792.1 M⁻¹ s⁻¹, 12792.1 M⁻¹ s⁻¹ and 30.5191.
On the same counts, the results for FIPFP-FTASG are 12792.1 M⁻¹ s⁻¹, 12792.1 M⁻¹ s⁻¹ and 42.1583.
Consider RRPSA-LTASG, for which the figures for the “Kobs” value at MMP-9 [1] and on MMP-2 were 10866.7 M⁻¹ s⁻¹ and 12792.1 M⁻¹ s⁻¹, respectively. The “relative probability (RP)” value in the experiment with MMP-9 [2] is recorded as 47.6113.
Taken in the same sequence, the figures for SGAYN-FQATA were 12792.1 M⁻¹ s⁻¹, 3438.54 M⁻¹ s⁻¹ and 19.0941.
With VYPGK-MTASG, the “Kobs” value at MMP-9 [1] is 1239.69 M⁻¹ s⁻¹; at MMP-2, 8941.32 M⁻¹ s⁻¹. In addition, the “relative probability (RP)” value in the experiment with MMP-9 [2] is reported as 16.9669.
Taken in the same sequence, the figures for GRPSF-LKTAS were 8321.48 M⁻¹ s⁻¹, 12792.1 M⁻¹ s⁻¹ and 37.0272.
Consider GVPRY-LRTAS, for which the “Kobs” value at MMP-9 [1] and at MMP-2 was 12792.1 M⁻¹ s⁻¹ throughout. Besides, the “relative probability (RP)” value in the experiment on MMP-9 [2] is reported as 44.5304.
In the case of KFPWN-YTASG, the “Kobs” value turned out to be 12792.1 M⁻¹ s⁻¹ on MMP-9 [1] and 2097.28 M⁻¹ s⁻¹ on MMP-2. In addition, the “relative probability (RP)” value in the experiment with MMP-9 [2] is 48.0713.
On the same counts, the results for RQPRN-VTASG are 12792.1 M⁻¹ s⁻¹, 6131.32 M⁻¹ s⁻¹ and 40.3866.
Taken in the same sequence, the figures for SRPRT-LTASG were 12792.1 M⁻¹ s⁻¹, 12792.1 M⁻¹ s⁻¹ and 42.2705.
For the substance TSARK-LTASG, the “Kobs” value on MMP-9 [1] came out at 1112.44 M⁻¹ s⁻¹; at MMP-2 it was 323.705 M⁻¹ s⁻¹. For the same substance, the “relative probability (RP)” value with MMP-9 [2] is on record as 0.
As to FDVWM-LTASG, the “Kobs” value came out at 1283.43 M⁻¹ s⁻¹ on MMP-9 [1] and 912.511 M⁻¹ s⁻¹ on MMP-2. Moreover, the “relative probability (RP)” value in the experiment with MMP-9 [2] is given as 17.1619.
Taken in the same sequence, the figures for SGPRT-LVVTA were 12792.1 M⁻¹ s⁻¹, 12792.1 M⁻¹ s⁻¹ and 42.2705.
On the same counts, the results for MSLAT-LTASG are 0 M⁻¹ s⁻¹, 12792.1 M⁻¹ s⁻¹ and 0.7406.
For the substance SGPRN-YHGTA, the “Kobs” value on MMP-9 [1] and on MMP-2 was 12792.1 M⁻¹ s⁻¹ in each case. Besides, in the experiment with MMP-9 [2], the “relative probability (RP)” value is 46.9938.
For SGPKF-LVMTA, the “Kobs” value stood at 12792.1 M⁻¹ s⁻¹ on MMP-9 [1] and 1981.53 M⁻¹ s⁻¹ at MMP-2. Moreover, the “relative probability (RP)” value with MMP-9 [2] was 42.7484.
Taken in the same sequence, the figures for TPPSS-LTASG were 12792.1 M⁻¹ s⁻¹, 12792.1 M⁻¹ s⁻¹ and 46.2595.
Consider VLLGN-FTASG, for which the “Kobs” value on MMP-9 [1] worked out at 690.17 M⁻¹ s⁻¹; at MMP-2 it was 12792.1 M⁻¹ s⁻¹. Further, the “relative probability (RP)” value in the experiment on MMP-9 [2] was 0.6963.
RAPLP-VTASG: the “Kobs” value on MMP-9 [1] and at MMP-2 was 12792.1 M⁻¹ s⁻¹ throughout. Moreover, in the experiment on MMP-9 [2], the “relative probability (RP)” value turned out to be 40.8342.
Consider PQMGS-LTASG, for which the “Kobs” value is 201.585 M⁻¹ s⁻¹ on MMP-9 [1] and 12792.1 M⁻¹ s⁻¹ on MMP-2. Besides, the “relative probability (RP)” value with MMP-9 [2] was 3.398.
Taken in the same sequence, the figures for KRVYL-LTASG were 2687.73 M⁻¹ s⁻¹, 484.315 M⁻¹ s⁻¹ and 2.817.
For SCVRM-MTASG, the figures for the “Kobs” value at MMP-9 [1] and at MMP-2 were 1561.44 M⁻¹ s⁻¹ and 1373.05 M⁻¹ s⁻¹, respectively. Further, in the experiment on MMP-9 [2], the “relative probability (RP)” value is 24.5728.
Consider LIPAW-LTASG, for which the results for the “Kobs” value at MMP-9 [1] and on MMP-2 were 10866.7 M⁻¹ s⁻¹ and 12792.1 M⁻¹ s⁻¹, respectively. Moreover, the “relative probability (RP)” value with MMP-9 [2] is 46.2228.
Taken in the same sequence, the figures for FKAVA-LTASG were 12792.1 M⁻¹ s⁻¹, 12792.1 M⁻¹ s⁻¹ and 32.1946.
Taken in the same sequence, the figures for SGVRA-VYSTA were 12792.1 M⁻¹ s⁻¹, 3079.62 M⁻¹ s⁻¹ and 25.1531.
On the same counts, the results for SSPLN-YTASG are 12792.1 M⁻¹ s⁻¹, 12792.1 M⁻¹ s⁻¹ and 47.778.
Take SGVRA-IRQTA: the “Kobs” value at MMP-9 [1] was determined as 12792.1 M⁻¹ s⁻¹; at MMP-2, 3253.29 M⁻¹ s⁻¹. The “relative probability (RP)” value in the experiment with MMP-9 [2] is 39.7636.
On the same counts, the results for PTPRS-YTASG are 12792.1 M⁻¹ s⁻¹, 7386.83 M⁻¹ s⁻¹ and 44.546.
SGVRW-STSTA: the results for the “Kobs” value on MMP-9 [1] and at MMP-2 were 7015.91 M⁻¹ s⁻¹ and 1071.29 M⁻¹ s⁻¹, respectively. The “relative probability (RP)” value with MMP-9 [2] is recorded as 18.5117.
On the same counts, the results for FQIGS-LTASG are 1465.65 M⁻¹ s⁻¹, 12792.1 M⁻¹ s⁻¹ and 7.1912.
Turning to MGLAN-LTASG, the “Kobs” value at MMP-9 [1] was 951.362 M⁻¹ s⁻¹; at MMP-2, 12792.1 M⁻¹ s⁻¹. The “relative probability (RP)” value with MMP-9 [2] is listed as 11.5381.
Consider QRVAA-VTASG, for which the “Kobs” value at MMP-9 [1] was 0 M⁻¹ s⁻¹; at MMP-2, 4082.43 M⁻¹ s⁻¹. The “relative probability (RP)” value with MMP-9 [2] was 0.4709.
On the same counts, the results for SQLGL-LTASG are 142.481 M⁻¹ s⁻¹, 12792.1 M⁻¹ s⁻¹ and 4.41.
Consider HKIAL-LTASG, for which the “Kobs” value on MMP-9 [1] amounted to 56.119 M⁻¹ s⁻¹; at MMP-2, 7386.83 M⁻¹ s⁻¹. Further, the “relative probability (RP)” value in the experiment with MMP-9 [2] came to 0.8483.
On the same counts, the results for YASIR-TASGA are 2545.25 M⁻¹ s⁻¹, 12792.1 M⁻¹ s⁻¹ and 0.562.
